Reference: ChEMBL document CHEMBL3885861, “Open TG-GATES”

Organism: Rattus norvegicus
Assay: Open TG-GATES - Regimen: Daily Repeat
Type: toxicity, organism-based, Sprague-Dawley
Parameters: regimen Daily Repeat, gender Male, age 6 weeks
Conditions: in vivo, po, route gavage; for Bas / Eos / Fbg / Ht / Lym / MCHC / MCV / Mono / PT / Plat / RBC / Ret / WBC / Neu: tissue Blood; for KIDNEY_L / KIDNEY_R / KIDNEY_TOTAL: tissue Kidney; for ALT / AST / CRE / Ca / DBIL / GLC / IP / K / LDH / Na / PL / RALB / TBIL / TC / TG / TP / gamma-GTP / BUN / Cl: tissue Plasma
[1] = 0 mg/kg, 72 h, dose level Control, time 3 day
[2] = 0 mg/kg, […], dose level Control, time 7 day
[3] = 0 mg/kg, […], dose level Control, time 14 day
[4] = 0 mg/kg, […], dose level Control, time 28 day
[5] = 80 mg/kg, 72 h, dose level Low, time 3 day
[6] = 80 mg/kg, […], dose level Low, time 7 day
[7] = 80 mg/kg, […], dose level Low, time 14 day
[8] = 80 mg/kg, […], dose level Low, time 28 day

COc1ccc([C@@H]2Sc3ccccc3N(CCN(C)C)C(=O)[C@@H]2OC(C)=O)cc1 [DILTIAZEM]
TERMINAL_BW [1]: 215.4 g
Bas [1]: 0.2%
Eos [1]: 1%
Fbg [1]: 262.2 mg/dL
Ht [1]: 41.3%
Lym [1]: 74.6%
MCHC [1]: 32.7%
MCV [1]: 67.4 fL
Mono [1]: 3.4%
PT [1]: 14.3 s
Plat [1]: 126.4 x10_4/uL
RBC [1]: 613.4 x10_4/ul
Ret [1]: 8.9%
WBC [1]: 101.8 x10_2/uL
KIDNEY_L [1]: 1 g
KIDNEY_R [1]: 1 g
KIDNEY_TOTAL [1]: 1.9 g
ALT [1]: 45.8 IU/L
AST [1]: 76.8 IU/L
CRE [1]: 0.2 mg/dL
Ca [1]: 11.2 mg/dL
DBIL [1]: 0.016 mg/dL
GLC [1]: 177.4 mg/dL
IP [1]: 7.6 mg/dL
K [1]: 4 meq/L
LDH [1]: 97 IU/L
Na [1]: 143.8 meq/L
PL [1]: 151.2 mg/dL
RALB [1]: 2.7 g/dL
TBIL [1]: 0.032 mg/dL
TC [1]: 79.6 mg/dL
TG [1]: 86 mg/dL
TP [1]: 5.5 g/dL
gamma-GTP [1]: 1.2 IU/L
TERMINAL_BW [2]: 250.6 g
TERMINAL_BW [3]: 321.8 g
TERMINAL_BW [4]: 411.3 g
Bas [2]: 0%
Eos [2]: 0.8%
Fbg [2]: 297.6 mg/dL
Ht [2]: 41.8%
Lym [2]: 77%
MCHC [2]: 33.1%
MCV [2]: 64.6 fL
Mono [2]: 2.8%
Neu [2]: 18.4%
PT [2]: 14.2 s
Plat [2]: 137.2 x10_4/uL
RBC [2]: 648 x10_4/ul
Ret [2]: 6.7%
WBC [2]: 91.7 x10_2/uL
Bas [3]: 0.4%
Eos [3]: 0.6%
Fbg [3]: 290.8 mg/dL
Ht [3]: 44%
Lym [3]: 82.2%
MCHC [3]: 33.2%
MCV [3]: 62.3 fL
Mono [3]: 2.2%
Neu [3]: 14%
PT [3]: 14.1 s
Plat [3]: 141.2 x10_4/uL
RBC [3]: 706.2 x10_4/ul
Ret [3]: 5.2%
Bas [4]: 0.4%
Eos [4]: 1%
Fbg [4]: 302.8 mg/dL
Ht [4]: 45.8%
Lym [4]: 77%
MCHC [4]: 34.1%
MCV [4]: 57.2 fL
Mono [4]: 2.4%
Neu [4]: 18.8%
PT [4]: 14 s
Plat [4]: 112.6 x10_4/uL
RBC [4]: 801.4 x10_4/ul
Ret [4]: 2.5%
WBC [4]: 99.4 x10_2/uL
KIDNEY_L [2]: 1.1 g
KIDNEY_R [2]: 1 g
KIDNEY_TOTAL [2]: 2.1 g
KIDNEY_L [3]: 1.3 g
KIDNEY_R [3]: 1.3 g
KIDNEY_TOTAL [3]: 2.6 g
KIDNEY_L [4]: 1.5 g
KIDNEY_R [4]: 1.5 g
KIDNEY_TOTAL [4]: 3 g
ALT [2]: 45.4 IU/L
AST [2]: 72.6 IU/L
BUN [2]: 14.8 mg/dL
CRE [2]: 0.2 mg/dL
Ca [2]: 11.1 mg/dL
Cl [2]: 106.4 meq/L
DBIL [2]: 0.014 mg/dL
GLC [2]: 187.8 mg/dL
IP [2]: 7.6 mg/dL
K [2]: 4.3 meq/L
LDH [2]: 84 IU/L
Na [2]: 143.8 meq/L
PL [2]: 162.4 mg/dL
RALB [2]: 2.8 g/dL
TBIL [2]: 0.018 mg/dL
TC [2]: 82.8 mg/dL
TG [2]: 112.6 mg/dL
TP [2]: 5.8 g/dL
gamma-GTP [2]: 1 IU/L
ALT [3]: 39 IU/L
AST [3]: 65.6 IU/L
BUN [3]: 16 mg/dL
CRE [3]: 0.2 mg/dL
Ca [3]: 10.8 mg/dL
Cl [3]: 105.6 meq/L
DBIL [3]: 0.018 mg/dL
GLC [3]: 189 mg/dL
IP [3]: 6.9 mg/dL
K [3]: 4.1 meq/L
LDH [3]: 92.8 IU/L
Na [3]: 144 meq/L
PL [3]: 160.4 mg/dL
RALB [3]: 2.8 g/dL
TBIL [3]: 0.02 mg/dL
TC [3]: 71.2 mg/dL
TG [3]: 180.4 mg/dL
TP [3]: 5.8 g/dL
gamma-GTP [3]: 1 IU/L
ALT [4]: 37.2 IU/L
AST [4]: 66 IU/L
BUN [4]: 16.8 mg/dL
CRE [4]: 0.3 mg/dL
Ca [4]: 11.1 mg/dL
Cl [4]: 108 meq/L
DBIL [4]: 0.014 mg/dL
GLC [4]: 198.8 mg/dL
IP [4]: 6.8 mg/dL
K [4]: 3.7 meq/L
LDH [4]: 63.4 IU/L
Na [4]: 146.4 meq/L
PL [4]: 160.2 mg/dL
RALB [4]: 2.9 g/dL
TBIL [4]: 0.028 mg/dL
TC [4]: 79.4 mg/dL
TG [4]: 125.2 mg/dL
TP [4]: 6.2 g/dL
gamma-GTP [4]: 1.2 IU/L
TERMINAL_BW [5]: 214.1 g
Bas [5]: 0%
Eos [5]: 0.8%
Fbg [5]: 270 mg/dL
Ht [5]: 39.8%
Lym [5]: 72.2%
MCHC [5]: 32.8%
MCV [5]: 64.2 fL
Mono [5]: 2.8%
Neu [5]: 23.2%
PT [5]: 13.8 s
Plat [5]: 118.7 x10_4/uL
RBC [5]: 621.2 x10_4/ul
Ret [5]: 8.5%
KIDNEY_L [5]: 0.9 g
KIDNEY_R [5]: 1 g
KIDNEY_TOTAL [5]: 1.9 g
ALT [5]: 48.6 IU/L
AST [5]: 68.2 IU/L
CRE [5]: 0.2 mg/dL
Ca [5]: 11.1 mg/dL
DBIL [5]: 0.02 mg/dL
GLC [5]: 178 mg/dL
IP [5]: 7.4 mg/dL
K [5]: 4 meq/L
LDH [5]: 78.4 IU/L
Na [5]: 143.8 meq/L
PL [5]: 161.2 mg/dL
RALB [5]: 2.6 g/dL
TBIL [5]: 0.026 mg/dL
TC [5]: 86.4 mg/dL
TG [5]: 128.8 mg/dL
TP [5]: 5.5 g/dL
gamma-GTP [5]: 1.2 IU/L
TERMINAL_BW [6]: 255.5 g
TERMINAL_BW [7]: 315.7 g
TERMINAL_BW [8]: 415.5 g
Bas [6]: 0%
Eos [6]: 1%
Fbg [6]: 295 mg/dL
Ht [6]: 41.2%
Lym [6]: 77.4%
MCHC [6]: 33.2%
MCV [6]: 65.1 fL
Mono [6]: 2.6%
Neu [6]: 17.8%
PT [6]: 14.2 s
Plat [6]: 132.9 x10_4/uL
RBC [6]: 632 x10_4/ul
Ret [6]: 7.5%
WBC [6]: 77.3 x10_2/uL
Bas [7]: 0.4%
Eos [7]: 0.6%
Fbg [7]: 311.2 mg/dL
Ht [7]: 44.4%
Lym [7]: 80.2%
MCHC [7]: 32.9%
MCV [7]: 63.6 fL
Mono [7]: 2.4%
PT [7]: 13.8 s
Plat [7]: 139.6 x10_4/uL
RBC [7]: 698.8 x10_4/ul
Ret [7]: 5%
WBC [7]: 116 x10_2/uL
Bas [8]: 0.2%
Eos [8]: 1.2%
Fbg [8]: 313.4 mg/dL
Ht [8]: 46.4%
Lym [8]: 77.4%
MCHC [8]: 33.9%
MCV [8]: 57.8 fL
Mono [8]: 2.2%
Neu [8]: 18.4%
PT [8]: 14 s
Plat [8]: 111.5 x10_4/uL
RBC [8]: 803.2 x10_4/ul
Ret [8]: 2.5%
KIDNEY_L [6]: 1.1 g
KIDNEY_R [6]: 1.1 g
KIDNEY_TOTAL [6]: 2.2 g
KIDNEY_L [7]: 1.3 g
KIDNEY_R [7]: 1.3 g
KIDNEY_TOTAL [7]: 2.6 g
KIDNEY_L [8]: 1.4 g
KIDNEY_R [8]: 1.4 g
KIDNEY_TOTAL [8]: 2.8 g
ALT [6]: 43.2 IU/L
AST [6]: 68.6 IU/L
BUN [6]: 15.4 mg/dL
CRE [6]: 0.2 mg/dL
Ca [6]: 11.2 mg/dL
DBIL [6]: 0.014 mg/dL
GLC [6]: 192.4 mg/dL
IP [6]: 8.3 mg/dL
K [6]: 4 meq/L
LDH [6]: 83.4 IU/L
Na [6]: 143.6 meq/L
PL [6]: 153.2 mg/dL
RALB [6]: 2.8 g/dL
TBIL [6]: 0.02 mg/dL
TC [6]: 81.2 mg/dL
TG [6]: 109.2 mg/dL
TP [6]: 5.8 g/dL
gamma-GTP [6]: 1 IU/L
ALT [7]: 45 IU/L
AST [7]: 70.4 IU/L
BUN [7]: 16.2 mg/dL
CRE [7]: 0.2 mg/dL
Ca [7]: 10.9 mg/dL
Cl [7]: 105.8 meq/L
DBIL [7]: 0.016 mg/dL
GLC [7]: 184.8 mg/dL
IP [7]: 7 mg/dL
K [7]: 4.2 meq/L
LDH [7]: 99.2 IU/L
Na [7]: 144.6 meq/L
PL [7]: 171.8 mg/dL
RALB [7]: 2.8 g/dL
TBIL [7]: 0.018 mg/dL
TC [7]: 81.8 mg/dL
TG [7]: 169.6 mg/dL
TP [7]: 6 g/dL
gamma-GTP [7]: 1.2 IU/L
ALT [8]: 40.8 IU/L
AST [8]: 70.4 IU/L
BUN [8]: 17.6 mg/dL
CRE [8]: 0.2 mg/dL
Ca [8]: 11.1 mg/dL
Cl [8]: 108.4 meq/L
DBIL [8]: 0.016 mg/dL
GLC [8]: 202.8 mg/dL
IP [8]: 6.6 mg/dL
K [8]: 3.8 meq/L
LDH [8]: 65 IU/L
Na [8]: 146.6 meq/L
PL [8]: 161.8 mg/dL
RALB [8]: 2.9 g/dL
TBIL [8]: 0.016 mg/dL
TC [8]: 79.2 mg/dL
TG [8]: 147.4 mg/dL
TP [8]: 6.5 g/dL
gamma-GTP [8]: 1 IU/L
TERMINAL_BW (240 mg/kg, 72 h, dose level Middle, time 3 day): 216.9 g
